The target in the experiment is T1, cPLA2 (Homo sapiens, UniProt P47712).
T1 sequence (P47712 1-749): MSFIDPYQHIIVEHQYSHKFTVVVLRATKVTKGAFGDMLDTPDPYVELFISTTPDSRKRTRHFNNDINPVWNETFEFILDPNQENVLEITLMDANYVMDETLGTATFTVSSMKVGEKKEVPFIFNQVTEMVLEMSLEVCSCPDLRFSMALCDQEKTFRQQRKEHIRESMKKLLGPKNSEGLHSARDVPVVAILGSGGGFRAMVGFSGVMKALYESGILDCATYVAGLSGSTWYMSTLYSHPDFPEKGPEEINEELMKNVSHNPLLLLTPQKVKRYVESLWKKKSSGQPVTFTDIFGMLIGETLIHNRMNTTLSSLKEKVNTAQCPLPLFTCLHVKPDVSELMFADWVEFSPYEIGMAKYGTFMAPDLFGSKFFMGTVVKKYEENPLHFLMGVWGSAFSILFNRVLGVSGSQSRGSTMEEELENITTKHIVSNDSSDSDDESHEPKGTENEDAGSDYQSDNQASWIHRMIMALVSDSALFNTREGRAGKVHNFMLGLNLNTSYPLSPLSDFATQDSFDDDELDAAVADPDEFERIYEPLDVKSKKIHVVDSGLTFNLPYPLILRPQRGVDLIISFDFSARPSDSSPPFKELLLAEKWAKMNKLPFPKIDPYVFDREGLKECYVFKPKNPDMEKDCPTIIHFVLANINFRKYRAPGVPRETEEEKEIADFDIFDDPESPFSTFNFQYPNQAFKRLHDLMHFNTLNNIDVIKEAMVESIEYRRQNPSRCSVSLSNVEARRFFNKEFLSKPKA
In words: Coumarine assay (hydrolysis of 7-hydroxycoumarinyl 6-heptenoate). It is filed as biochemical. Particulars: 60 μM 7-hydroxycoumarinyl 6-heptenoate, pH 7.5; read-out: Coumarin IC50.

This is an account of results in patent US7605156B2, “Methods for the use of inhibitors of cytosolic phospholipase A2” (Wyeth, priority 2001, dated 2009).

Broadly, the IC50 is the concentration that gives 50% inhibition.

`O=C(O)c1ccc(CCCc2c(CCNS(=O)(=O)c3cccc(-c4ccccc4)c3)n(C(c3ccccc3)c3ccccc3)c3ccc(Cl)cc23)cc1` [Example 206, 4-[3-(1-benzhydryl-2-{-2-[-(1,1′-biphenyl-3-ylsulfonyl)amino]ethyl}-5-chloro-1H-indol-3-yl)propyl]benzoic acid]: the IC50 turned out to be 500 nM. Next, `O=C(O)c1ccc(CCCc2c(CCNS(=O)(=O)c3ccccc3[N+](=O)[O-])n(C(c3ccccc3)c3ccccc3)c3ccc(Cl)cc23)cc1` [Example 264, 4-{3-[1-benzhydryl-5-chloro-2-(2-{[(2-nitrophenyl)sulfonyl]amino}ethyl)-1H-indol-3-yl]propyl}benzoic acid]: 400 nM; `O=C(O)c1ccc(OCCc2c(CCNS(=O)(=O)CSc3ccc(Cl)c(Cl)c3)n(C(c3ccccc3)c3ccccc3)c3ccc(Cl)cc23)cc1` [Example 220, 4-[2-(1-benzhydryl-5-chloro-2-{2-[({[(3,4-dichlorophenyl)thio]methyl}sulfonyl)amino]ethyl}-1H-indol-3-yl)ethoxy]benzoic acid]: 400 nM. Then `N#Cc1ccccc1S(=O)(=O)NCCc1c(CCCc2ccc(C(=O)O)cc2)c2cc(Cl)ccc2n1C(c1ccccc1)c1ccccc1` [Example 155, 4-{3-[1-benzhydryl-5-chloro-2-(2-{[(2-cyanophenyl)sulfonyl]amino}ethyl)-1H-indol-3-yl]propyl}benzoic acid], with 450 nM; and `O=C(O)c1ccc(OCCc2c(CCNS(=O)(=O)c3c(Cl)cccc3Cl)n(C(c3ccccc3)c3ccccc3)c3ccc(Cl)cc23)cc1` [Example 160, 4-{2-[1-benzhydryl-5-chloro-2-(2-{[(2,6-dichlorophenyl)sulfonyl]amino}ethyl)-1H-indol-3-yl]ethoxy}benzoic acid], with 190 nM; and `O=C(O)c1ccc(OCCc2c(CCNS(=O)(=O)CCN3CCC(O)CC3)n(C(c3ccccc3)c3ccccc3)c3ccc(Cl)cc23)cc1` [Example 123, 4-[2-(1-Benzhydryl-5-chloro-2-{2-[2-(4-hydroxy-piperidin-1-yl)-ethanesulfonylamino]-ethyl}-1H-indol-3-yl)-ethoxy]-benzoic acid], with 1500 nM. Next, `Cc1nc(S(=O)(=O)NCCc2c(CCOc3ccc(C(=O)O)cc3)c3cc(Cl)ccc3n2C(c2ccccc2)c2ccccc2)cn1C` [Example 258, 4-{2-[1-benzhydryl-5-chloro-2-(2-{[(1,2-dimethyl-1H-imidazol-4-yl)sulfonyl]amino}ethyl)-1H-indol-3-yl]ethoxy}benzoic acid]: 800 nM; `O=C(O)c1ccc(OCCc2c(CCNS(=O)(=O)c3ccsc3)n(C(c3ccccc3)c3ccccc3)c3ccc(Cl)cc23)cc1` [Example 178, 4-[2-(1-benzhydryl-5-chloro-2-{2-[(thien-3-ylsulfonyl)amino]ethyl}-1H-indol-3-yl)ethoxy]benzoic acid]: 650 nM; `Cc1ccc(S(=O)(=O)NCCc2c(CCCc3ccc(C(=O)O)cc3)c3cc(Cl)ccc3n2C(c2ccccc2)c2ccccc2)cc1Cl` [Example 261, 4-{3-[1-benzhydryl-5-chloro-2-(2-([(3-chloro-4-methylphenyl)sulfonyl]amino}ethyl)-1H-indol-3-yl]propyl}benzoic acid]: 250 nM. Take `Cc1c(Cl)cc(F)cc1S(=O)(=O)NCCc1c(CCOc2ccc(C(=O)O)cc2)c2cc(Cl)ccc2n1C(c1ccccc1)c1ccccc1` [Example 262, 4-{2-[1-benzhydryl-5-chloro-2-(2-{[(3-chloro-5-fluoro-2-methylphenyl)sulfonyl]amino}ethyl)-1H-indol-3-yl]ethoxy}benzoic acid]: the IC50 was 530 nM. Then `CSc1ccccc1S(=O)(=O)NCCc1c(CCOc2ccc(C(=O)O)cc2)c2cc(Cl)ccc2n1C(c1ccccc1)c1ccccc1` [Example 239, 4-(2-{1-benzhydryl-5-chloro-2-[2-({[2-(methylthio)phenyl]sulfonyl}amino)ethyl]-1H-indol-3-yl}ethoxy)benzoic acid], with 480 nM.
